The record followed here is patent US20250122222A1, “HETEROCYCLIC COMPOUNDS AND METHODS OF USE” (AMGEN INC., priority 2021, published 2025).

The test system of assay [1] is Phosphorylation of ERK1/2 in AsPC-1 cells. As to the kind of experiment: Phospho-ERK1/2 MSD assay. In kind it is cell-based. How it is done: Sixteen hours prior to compound treatment, AsPC-1 cells were seeded in 96-well cell culture plates at a density of 25,000 cells/well and incubated at 37° C., 5% CO2. A compound dose-response titration was diluted in growth media, added to appropriate wells of a cell culture plate, and then incubated at 37° C., 5% CO2 for 2 hours.

The target of assay [2] is His-tagged KRAS G12D protein (Homo sapiens, UniProt P01116, G12D). As to the kind of experiment: KRAS G12D TR-FRET assay (binding). The note with it: biotinylated KRPep-2d substrate, GDP in assay buffer. For orientation: Time-resolved FRET reads energy transfer from a long-lived donor to a nearby acceptor.
Sequence of His-tagged KRAS G12D protein (P01116 1-188 isoform P01116-2 G12D): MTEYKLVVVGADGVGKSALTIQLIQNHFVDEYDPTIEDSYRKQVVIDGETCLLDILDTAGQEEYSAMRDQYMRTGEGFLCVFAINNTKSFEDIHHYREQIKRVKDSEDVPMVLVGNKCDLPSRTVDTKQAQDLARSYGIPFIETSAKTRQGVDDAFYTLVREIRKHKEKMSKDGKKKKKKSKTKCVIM
Procedure: The plate was incubated for 30 minutes at room temperature. Biotinylated KRPep-2d substrate (Amgen) was diluted to 20 nM in Assay Buffer and 2 L was added to all wells and incubated for 1 hour at room temperature. Detection Reagent (0.4 nM LANCE Eu-W1024 Anti-6xHis (Perkin Elmer AD0401), 5 nM streptavidin-d^2 (Cisbio 610SADLA)) was prepared in Assay Buffer, then 4 μL was added to the plate and incubated for 1 hour at room temperature.
The mark [3] stands for this setting: Homo sapiens, ASPC1, read-out: 2 h p-ERK (AsPC-1 cells), IC50 (μM), 2 hours compound treatment.

In general, IC50 refers to the midpoint of a concentration-inhibition curve.

Read-outs that look alike come from different tables or passages of the source.

Take `CCc1c(F)ccc2cc(O)cc(-c3ncc4c(N5CCO[C@@H](COC)C5)nc(OC[C@@]56CCCN5C[C@H](F)C6)nc4c3F)c12` [Example 53, 5-Ethyl-6-fluoro-4-(8-fluoro-2-(((2R, 7aS)-2-fluorotetra-hydro-1H-pyrrol-izin-7a(5H)-yl)-methoxy)-4-((R)-2-(methoxymeth-yl)morpholino)pyr-ido[4,3-d]pyrimi-din-7-yl)naph-thalen-2-ol]: the values for the IC50 in assay [1] (setting [3]) and in assay [2] were 1.24 µM and 39 nM, respectively.

`CCc1c(F)ccc2cc(O)cc(-c3ncc4c(N5C[C@H]6C[C@@H](C5)O6)nc(OC[C@@]56CCCN5C[C@H](F)C6)nc4c3F)c12` [Example 27, 4-(4-((1R,5S)-6-Oxa-3-azabicyclo[3.1.1]heptan-3-yl)-8-fluoro-2-(((2R,7aS)-2-fluorotetrahydro-1H-pyrrolizin-7a(5H)-yl)methoxy)pyrido [4,3-d]pyrimidin-7-yl)-5-ethyl-6-fluoronaphthalen-2-ol]: the IC50 came to 2.28 µM in assay [1] (setting [3]) and 62 nM in assay [2].

With `CCc1c(F)ccc2cc(O)cc(-c3ncc4c(N5CCOCC(=O)C5)nc(OCC56CCCN5CC(F)C6)nc4c3F)c12` [Example 67, 4-(7-(8-ethyl-7-fluoro-3-hydroxy-naphthalen-1-yl)-8-fluoro-2-(((2R,7aS)-2-fluorotetrahydro-1H-pyrrolizin-7a(5H)-yl)methoxy)-pyrido[4,3-d]pyrim-idin-4-yl)-1,4-oxazepan-6-one], the 50% inhibitory concentration (IC50) in assay [1] (setting [3]) turned out to be 0.072 µM; in assay [2], 2 nM.

In the case of `CCc1c(F)ccc2cc(O)cc(-c3ncc4c(N5CCOCC(C#N)C5)nc(OC[C@@]56CCCN5C[C@H](F)C6)nc4c3F)c12` (stereo partly drawn) [Example 61, 4-(7-(8-Ethyl-7-fluoro-3-hydroxy-naphthalen-1-yl)-8-fluoro-2-(((2R,7aS)-2-fluorotetrahydro-1H-pyrrolizin-7a(5H)-yl)meth-oxy)-pyrido[4,3-d]pyrimidin-4-yl)-1,4-oxazepane-6-carbonitrile], the IC50 was found to be 0.193 µM in assay [1] (setting [3]) and 3 nM in assay [2].

In the case of `CCc1c(F)ccc2cc(O)cc(-c3ncc4c(N5CCOC[C@@H](OC)C5)nc(OC[C@@]56CCCN5C[C@H](F)C6)nc4c3F)c12` [Example 39, 5-Ethyl-6-fluoro-4-(8-fluoro-2-(((2R,7aS)-2-fluorotetrahydro-1H-pyrrolizin-7a(5H)-yl)methoxy)-4-((S)-6-methoxy-1,4-oxazepan-4-yl)pyrido[4,3-d]pyrimidin-7-yl)naphthalen-2-ol], the IC50 in assay [1] (setting [3]) was 0.171 µM; in assay [2], 5 nM.

Take `CCc1c(F)ccc2cc(O)cc(-c3ncc4c(N5C[C@@H]6CC[C@@H]5CO6)nc(OC[C@@]56CCCN5C[C@H](F)C6)nc4c3F)c12` [Example 28, 4-(4-((1S,4R)-2-Oxa-5-azabicyclo[2.2.2]octan-5-yl)-8-fluoro-2-(((2R,7aS)-2-fluorotetrahydro-1H-pyrrolizin-7a(5H)-yl)methoxy)pyrido [4,3-d]pyrimidin-7-yl)-5-ethyl-6-fluoronaphthalen-2-ol]: the IC50 in assay [1] (setting [3]) was determined as 1.77 µM; in assay [2] it was 79 nM.

For `CCc1c(F)ccc2cc(O)cc(-c3ncc4c(N5C[C@H]6COC[C@@H](C5)O6)nc(OC[C@@]56CCCN5C[C@H](F)C6)nc4c3F)c12` [Example 21, 4-(4-((1R,5S)-3,9-Dioxa-7-azabicyclo[3.3.1]nonan-7-yl)-8-fluoro-2-(((2R,7aS)-2-fluorotetrahydro-1H-pyrrolizin-7a(5H)-yl)methoxy)pyrido [4,3-d]pyrimidin-7-yl)-5-ethyl-6-fluoronaphthalen-2-ol], the IC50 was 0.621 µM in assay [1] (setting [3]) and 11 nM in assay [2].

Turning to `Cc1c(Cl)cc2[nH]ncc2c1-c1ncc2c(N3CCCOCC3)nc(OC[C@@]34CCCN3C[C@H](F)C4)nc2c1F` [Example 15, 4-(7-(6-Chloro-5-methyl-1H-indazol-4-yl)-8-fluoro-2-(((2R,7aS)-2-fluorotetrahydro-1H-pyrrolizin-7a(5H)-yl)methoxy)pyrido [4,3-d]pyrimidin-4-yl)-1,4-oxazepane], the 50% inhibitory concentration (IC50) was 4.51 µM in assay [1] (setting [3]) and 36 nM in assay [2].

In the case of `CCc1c(F)ccc2cc(O)cc(-c3ncc4c(N5CCOC[C@@](C)(O)C5)nc(OC[C@@]56CCCN5C[C@H](F)C6)nc4c3Cl)c12` (single isomer, unassigned) [Example 80], the figures for the 50% inhibitory concentration (IC50) in assay [1] (setting [3]) and in assay [2] were 0.024 µM and 4 nM, respectively.

With `CCc1c(F)ccc2cc(O)cc(-c3ncc4c(N5CCOCC(C(=O)NC)C5)nc(OC[C@@]56CCCN5C[C@H](F)C6)nc4c3F)c12` (single isomer, unassigned) [Example 45], the IC50 in assay [1] (setting [3]) amounted to 0.427 µM; in assay [2] it was 2 nM.

As for `CCc1c(F)ccc2cc(O)cc(-c3ncc4c(N5CCCS(=O)(=O)C5)nc(OC[C@@]56CCCN5C[C@H](F)C6)nc4c3F)c12` [Example 62, 3-(7-(8-Ethyl-7-fluoro-3-hydroxy-naphthalen-1-yl)-8-fluoro-2-(((2R,7aS)-2-fluorotetrahydro-1H-pyrrolizin-7a(5H)-yl)meth-oxy)pyrido[4,3-d]pyrimidin-4-yl)-1,3-thiazinane 1,1-dioxide], the IC50 amounted to 0.07 µM in assay [1] (setting [3]) and 1 nM in assay [2].

Turning to `C#CC1(O)COCCN(c2nc(OC[C@@]34CCCN3C[C@H](F)C4)nc3c(F)c(-c4cc(O)cc5ccc(F)c(CC)c45)ncc23)C1` (stereo partly drawn) [Example 70, 4-(7-(8-ethyl-7-fluoro-3-hydroxynaphthalen-1-yl)-8-fluoro-2-(((2R,7aS)-2-fluorotetrahydro-1H-pyrrolizin-7a(5H)-yl)methoxy)pyrido[4,3-d]pyrimidin-4-yl)-6-ethynyl-1,4-oxazepan-6-ol], the half-inhibitory concentration (IC50) in assay [1] (setting [3]) stood at 0.643 µM; in assay [2], 1 nM.

Consider `CCc1cccc2cc(O)cc(-c3ncc4c(N5CC6COC(C6)C5)nc(OC[C@@]56CCCN5C[C@H](F)C6)nc4c3F)c12` (stereo partly drawn) [Example 10, 4-(4-(6-Oxa-3-azabicyclo[3.2.1]octan-3-yl)-8-fluoro-2-(((2R,7aS)-2-fluorotetrahydro-1H-pyrrolizin-7a(5H)-yl)methoxy)pyrido [4,3-d]pyrimidin-7-yl)-5-ethylnaphthalen-2-ol], for which the IC50 in assay [1] (setting [3]) turned out to be 0.277 µM; in assay [2], 8 nM.

Consider `CCc1cccc2cc(O)cc(-c3ncc4c(N5CCOCC(F)(F)C5)nc(OC[C@@]56CCCN5C[C@H](F)C6)nc4c3F)c12` [Example 7, 4-(4-(6,6-Difluoro-1,4-oxazepan-4-yl)-8-fluoro-2-(((2R,7aS)-2-fluorotetrahydro-1H-pyrrolizin-7a(5H)-yl)methoxy)pyrido [4,3-d]pyrimidin-7-yl)-5-ethylnaphthalen-2-ol], for which the results for the 50% inhibitory concentration (IC50) in assay [1] (setting [3]) and in assay [2] were 0.046 µM and 2 nM, respectively.

Turning to `CCc1c(F)ccc2cc(O)cc(-c3ncc4c(N5CC6COC(C5)C6O)nc(OC[C@@]56CCCN5C[C@H](F)C6)nc4c3F)c12` (relative stereo) [Example 11, 3-(7-(8-Ethyl-7-fluoro-3-hydroxynaphthalen-1-yl)-8-fluoro-2-(((2R,7aS)-2-fluorotetrahydro-1H-pyrrolizin-7a(5H)-yl)methoxy)pyrido [4,3-d]pyrimidin-4-yl)-6-oxa-3-azabicyclo[3.2.1] octan-8-ol], the half-inhibitory concentration (IC50) in assay [1] (setting [3]) was more than 10 µM; in assay [2], 39 nM.

For the compound `CCc1cccc2cc(O)cc(-c3ncc4c(N5CCCOCC5)nc(OC[C@@H]5C[C@@H](F)CN5C)nc4c3F)c12` [Example 32, 5-Ethyl-4-(8-fluoro-2-(((2S,4R)-4-fluoro-1-methylpyrrolidin-2-yl)methoxy)-4-(1,4-oxazepan-4-yl)pyrido[4,3-d]pyrimidin-7-yl)naphthalen-2-ol], the figures for the IC50 in assay [1] (setting [3]) and in assay [2] were 0.966 µM and 13 nM, respectively.

Turning to `CCc1c(F)ccc2cc(O)cc(-c3ncc4c(N5CCOC[C@](O)(CC)C5)nc(OC[C@@]56CCCN5C[C@H](F)C6)nc4c3F)c12` [Example 79, (S)-6-Ethyl-4-(7-(8-ethyl-7-fluoro-3-hydroxynaphthalen-1-yl)-8-fluoro-2-(((2R,7aS)-2-fluorotetrahydro-1H-pyrrolizin-7a(5H)-yl)methoxy)pyrido [4,3-d]pyrimidin-4-yl)-1,4-oxazepan-6-o1], the half-inhibitory concentration (IC50) in assay [1] (read-out: 2 h p-ERK (AsPC-1 cells), IC50, 2 hours compound treatment) is 0.024 µM; in assay [2] it was 1 nM.

`CCc1c(F)ccc2cc(O)cc(-c3ncc4c(N5CCCSCC5)nc(OC[C@@]56CCCN5C[C@H](F)C6)nc4c3F)c12` [Example 5, 5-Ethyl-6-fluoro-4-(8-fluoro-2-(((2R,7aS)-2-fluorotetrahydro-1H-pyrrolizin-7a(5H)-yl)methoxy)-4-(1,4-thiazepan-4-yl)pyrido[4,3-d]pyrimidin-7-yl)naphthalen-2-ol]: the IC50 was determined as 0.088 µM in assay [1] (setting [3]) and 2 nM in assay [2].

Regarding `CCc1cccc2cc(O)cc(-c3ncc4c(N5CCOC[C@@](C)(O)C5)nc(OC[C@@]56CCCN5C[C@H](F)C6)nc4c3F)c12` [Example 78, (S)-4-(7-(8-Ethyl-3-hydroxynaphthalen-1-yl)-8-fluoro-2-(((2R,7aS)-2-fluorotetrahydro-1H-pyrrolizin-7a(5H)-yl)methoxy)pyrido [4,3-d]pyrimidin-4-yl)-6-methyl-1,4-oxazepan-6-ol], the IC50 was 0.013 µM in assay [1] (setting [3]) and 1 nM in assay [2].

For the compound `CCc1c(F)ccc2cc(O)cc(-c3ncc4c(N5CCCOC(C(N)=O)C5)nc(OC[C@@]56CCCN5C[C@H](F)C6)nc4c3F)c12` (stereo partly drawn) [Example 51, 4-(7-(8-Ethyl-7-fluoro-3-hydroxy-naphthalen-1-yl)-8-fluoro-2-(((2R, 7aS)-2-fluorotetra-hydro-1H-pyrrol-zin-7a(5H)-yl)-methoxy)pyrido [4,3-d]pyrimidin-4-yl)-1,4-oxazepane-2-carboxamide], the figures for the IC50 in assay [1] (setting [3]) and in assay [2] were 6.23 µM and 6 nM, respectively.
